Assays:
HLAC CD4 T-cells = test: HLAC cells overlaid on virus-producing 293T-cells, CD4 T-cell depletion; format: cell-based, human; settings: TR712-transfected 293T-cells in the presence of amprenavir
Description: HLACs were infected with viruses derived from the indicated HIV proviral clones in the presence of the indicated concentrations of AZT or in the absence of drugs. Six days after infection the amount of p24^gag in the medium was determined by FLAQ assay. The amount of p24^gag in the medium after infection wash (day 0) was defined as 0%. […] Viral incorporation of endogenous A3G was measured by immunoblot analysis of purified NL4-3 and Δvif NL4-3 virions harvested from 1 ml of supernatant from infected HLACs. Doses reflect 1:10 dilutions. […] Resting or activated CFSE-labeled cells were co-cultured with cells infected with WT or Δvif NL4-3 in the presence or absence of the following drugs, AZT (5 μM), AMD3100 (250 nM), the NNRTIs Efavirenz (100 nM), and Nevirapine (1 μM), or the integration inhibitors Raltegravir (30 μM) and 118-D-24 (60 μM). Data are representative of four independent experiments performed with cells from four different donors. (E) A method to assess indirect killing in HLAC with non-infectious HIV-1 clones. Fresh human tonsil is processed into HLAC and cells are cultured in suspension. At the same time 293T-cells are transfected with 1 μg HIV-1 DNA in a 24-well plate. After 12 hours, 293T-cells are washed and overlayed with 3×10^6 HLAC cells in RPMI in the presence of the indicated drugs. Virus-producing 293T-cells directly interact with target overlaying HLAC cells. After 24 hours, the HLAC suspensions are collected from wells and analyzed by flow cytometry. […] HLAC were cultured with the indicated drugs 3 hours before co-culture with 293T-cells. Percentages are normalized to the number of viable CD4 T-cells in HLAC overlaying non-transfected 293T-cells in the presence of AZT, as depicted by (*). Error bars represent standard error of the mean of three experiments performed using cells from three different HLAC donors.

CFSE-labeled CD4 T-cells = format: cell-based, human; settings: NL4-3-infected effector cells
Description: (A) Experimental strategy to assess indirect cell killing in HIV-1-infected human lymphoid cultures. Fresh human tonsil tissue from a single donor is processed into HLAC, and then separated into two fractions. One fraction is challenged with HIV-1 and cultured for 6 days, allowing viral spread. On day 5, the uninfected fraction is treated with AZT (5 μM) and labeled with CFSE (1 μM). On day 6, the infected and CFSE-labeled (i.e., uninfected) cultures are mixed and co-cultured in the presence of AZT. […] After 6 days of co-culturing, the number of viable CFSE-positive cells is determined by flow cytometry. (B) Flow cytometry analysis of the mixed HLACs. Indirect killing is determined by gating on live CFSE-positive cells in the mixed cultures. Effector cells are either infected or uninfected cells. […] CFSE-labeled cells mixed with uninfected or infected cells were cultured in the presence of 5 μM AZT alone or together with 250 nM AMD3100. Data represent live CFSE-positive cells 6 days after co-culture with infected or uninfected effector cells. […] The absolute numbers of viable CFSE-positive CD4 and CD8 T-cells and B cells were determined. Percentages are normalized to the number of viable CFSE-positive cells co-cultured with uninfected cells in the presence of AZT, as depicted by (*). Error bars represent standard deviations of three samples from the same donor. […] See also FIG. 3.
Human tonsil or splenic tissues from routine tonsillectomies were obtained from the National Disease Research Interchange and the Cooperative Human Tissue Network and processed as previously described (Jekle et al., 2003, J Virol 77:5846-5854). In brief, tonsils or spleen were minced, passed through a 40-μm cell strainer, and cultured in 96-well U-bottomed polystyrene plates (2×10^6 cells/well) in medium (200 μl/well) consisting of RPMI 1640 supplemented with 15% heat-inactivated fetal bovine serum, 100 μg/ml gentamicin, 200 μg/ml ampicillin, 1 mM sodium pyruvate, 1% nonessential amino acids (Mediatech), 2 mM L-glutamine, and 1% fungizone (Invitrogen). All HIV-1 infections were carried out with 20-50 ng of HIV-1 p24^gag. Cells were incubated with the virus for 12-16 h, washed extensively, and supplemented with fresh medium. After day 5, infections were monitored by measuring p24gag levels in the culture medium using a FLAQ assay (Hayden et al., 2003, AIDS 17:629-631). Infected and uninfected cultures were manipulated as described for individual experiments. In “indirect killing” assays, unless otherwise stated, drugs were used at the following concentrations: 5 μM AZT; 250 nM AMD3100; 10 μg/ml T20; 100 nM Efavirenz; 1 μM Nevirapine; 30 μM Raltegravir; 60 μM 118-D-24; 5 μM Amprenavir; 5 μM Saquinavir; 5 μM Indinavir. CFSE-labeled cells were activated with PHA (5 μg/ml) and IL-2 (20 ng/ml) 2 days before mixing with effector cells.
Uninfected cells (5×10^6/ml) were labeled with 1 μM CFSE (Molecular Probes C1157), treated with 5 μM AZT for 24 h, and co-cultured with effector cells. CFSE readily diffuses into cells, where intracellular esterases cleave the acetate groups, converting it to a fluorescent, membrane-impermeable dye.

[1] = tested on: SupT1 CD4 T leukemic cells; test: Syncytia formation in NL4-3-infected SupT1 cells; format: cell-based; settings: 5 μM protease inhibitor, 2.5 days
Description: (A) The spinoculation procedure. (B) Flow cytometry of viable CD4 versus CD8-T-cells in HLAC three days after spinoculation in the presence of the indicated drugs. Data represent live-gated cells, based on the forward-scatter versus side-scatter profile of the complete culture. Of note, apoptotic cells were included in the analysis of caspases activity and cytokine expression (FIG. 10E, F). Drugs concentrations: AZT 5 μM; Efavirenz 100 nM; AMD3100 250 nM; T20 10 μg/ml. The data are representative results of six independent experiments with six different donors. […] (C) Highly permissive SupT1 CD4 T leukemic cells were infected with NL4-3 and cultivated for 3 days to allow substantial infection but not syncytia formation. […] After 2.5 days of additional culture, the extent of syncytia formation in each sample was evaluated by light microscopy. […] Results are representative of three independent experiments.

NL4-3 and TR712 virions = test: Viral maturation, immunoblot of viral lysates produced in 293T-cells; format: cell-based; settings: NL4-3 and TR712 virions produced with amprenavir
Description: NL4-3 and TR712 viruses were generated in 293T-cells with or without amprenavir, lysed and subjected to SDS-PAGE immunoblotting analysis for gp120, p55 Gag, p24 CA, Blam-Vpr, and free Blam. […] SupT1 cells were mock infected or infected with mature or immature NL4-3 or TR712 virions containing Blam-Vpr. After loading of cells with CCF2 dye, fusion was analyzed by flow cytometry. Percentages are the fraction of cells displaying increased cleaved CCF2 fluorescence, indicating virion fusion.
The effect of protease inhibitors on viral maturation was assessed first. NL4-3 viruses carrying a β-lactamase-Vpr (BlaM-Vpr) reporter protein were produced in 293T-cells in the presence or absence of the HIV protease inhibitor amprenavir.

SupT1 cells = test: Virion-based fusion assay (BlaM-Vpr); format: cell-based; settings: virions produced in the presence of amprenavir
Description: The virion-based fusion assay is performed in three successive steps: (1) incubation of target cells with virions, (2) loading of target cells with the CCF2/AM dye, and (3) development and detection of the BlaM reaction. SupT1 cells (5×10^5) were incubated with BlaM-Vpr containing virions (400 ng of p24^gag at 37° C. for 2 hours, washed in CO2-independent medium (GibCo BRL), and loaded with CCF2/AM dye as described by the manufacturer (Invitrogen). Briefly, 2 μl of CCF2/AM (1 mM) was mixed with 8 μl of 0.1% acetic acid containing 100 mg/ml Pluronic-F127R and 1 ml of DEEM to constitute the loading solution. Cells were incubated in 100 μl of loading solution for 1 hour at room temperature. After two washes with DEEM, the BlaM reaction was executed for 16 hours at room temperature in 200 μl of DMEM supplemented with 10% FBS and 2.5 mM probenecid, a nonspecific inhibitor of anion transport (Sigma Pharmaceuticals). Finally, the cells were washed once in DMEM and fixed in a 2% solution of paraformaldehyde. The change in emission fluorescence of CCF2 after cleavage by the BlaM-Vpr chimera was monitored by flow cytometry with LSR2 (Becton Dickinson, San Jose, Calif.). Data were collected with DiVa software and analyzed with FlowJo software (Treestar, San Carlos, Calif.).

CC(C)CN(C[C@@H](O)[C@H](Cc1ccccc1)NC(=O)O[C@H]1CCOC1)S(=O)(=O)c1ccc(N)cc1 [Amprenavir]
CD4 T-cell killing by TR712 viruses (HLAC CD4 T-cells): prevented CD4 T-cell killing by TR712 viruses
indirect killing (loss) of resting CFSE-labeled CD4 T-cells (CFSE-labeled CD4 T-cells): inhibit indirect killing
syncytia formation / cell-cell fusion [1]: do not block syncytia formation
Gag processing in virions (NL4-3 and TR712 virions): an uncleaved form of p55 Gag polypeptide rather than the mature p24 CA protein accumulated
decline in fusogenic properties of immature NL4-3 viruses (SupT1 cells): 90%
fusion capacity retained by immature TR712 (SupT1 cells): 40%
